This note sets out measurements from patent publication US12016922B2, “Stabilized aqueous antibody compositions” (Arecor Limited, priority 2012, dated 2024).

Data set [1] concerns rituximab. As to the kind of experiment: Aggregation of rituximab formulations on storage, % HMWS by size exclusion chromatography. The data set is classed as physicochemical. Conditions: trehalose 200 mM, pH 6.5, 40° C.; for effect on the rate of formation of HMWS / rate of aggregation compared with Original formulation: Example 4: rituximab 100 mg/ml; for effect on the rate of formation of HMWS: compared with background formulation without oligomer; for % HMWS 16 weeks / % HWMS 0 weeks: rituximab 100 mg/ml; for effect on the rate of aggregation: Example 5: rituximab 140 mg/ml; for % HMWS 0 weeks / % HMWS 12 weeks / % HMWS 26 weeks: rituximab 140 mg/ml. On the procedure: (§1) Formulations of protein therapeutics, rituximab and certolizumab pegol, were prepared either in the absence or in the presence of various oligomers of ethyleneimine. The following products were used as the starting material: MabThera® (rituximab) and Cimzia® (certolizumab pegol). The compositions of the two products are as follows:
(§2) In order to prepare the formulations for testing, it was necessary to remove the original excipients and replace them with the selected excipients. The following procedure was used to prepare the formulations for testing: Original compositions were removed from the manufacturer's container and dialysed in 3.5 kDa cut-off dialysis cassettes (Thermo Pierce) at 2-8° C., using three changes for a minimum of 4 hours in each, including one overnight incubation.
(§3) The background solutions, containing the new excipients and adjusted to the required pH, were added to the dialysed proteins to achieve the required concentration of excipients and the protein in the final composition. The formulated samples were placed into storage at 40° C. or at 5° C., and stability was tested after a given period of time. The stability of the proteins was tested in compositions containing oligomers of ethyleneimine and compared to a ‘Control formulation’ with identical background in the absence of the oligomers.
(§4) The amount of high molecular weight species is measured using a 300×7.8 mm S3000 (or equivalent) size-exclusion column with a guard column. The mobile phase is potassium phosphate pH 6.5, with a flow rate of 0.4 ml/min, injection volume of 1 μl and detected at 210 and 280 nm. The results are expressed as % high molecular species (HMWS), i.e. sum of all peak areas corresponding to aggregated protein over the sum of all protein-related peaks on the chromatogram. […] However, within a given time-point the samples are tested using the column in the same condition, so the values generated within the time-point represent a very good indication of the relative stability of the protein in the compositions tested.
Rituximab was formulated at 100 mg/ml in the following background solution: EDTA (0.2 mM), methionine (1 mM), histidine (10 mM). The pH was adjusted to 6.5.
Rituximab was formulated at 100 mg/ml in the following background solution: EDTA (0.2 mM), methionine (1 mM), histidine (10 mM), in the presence of arginine (80 mM) as a tonicity modifier. The pH of all formulations was adjusted to 6.5. For comparison, the formulation of commercial liquid rituximab product (‘Original formulation’ also with rituximab at 100 mg/ml) was also included.
Rituximab was formulated at 100 mg/ml in the following background solution: EDTA (0.2 mM), methionine (1 mM) histidine (10 mM) and trehalose (200 mM). The pH was adjusted to 6.5.
Rituximab was formulated at 140 mg/ml in the following background solution: EDTA (0.2 mM), methionine (1 mM), histidine (10 mM) and trehalose (200 mM). The pH was adjusted to 6.5.

For data set [2], the system named is Certolizumab pegol. As to the kind of experiment: Aggregation of certolizumab pegol formulations on storage, % HMWS by size exclusion chromatography. The format is physicochemical. Conditions: Certolizumab pegol 100 mg/ml, 40° C. On the procedure: as §1, §2, §3, §4
Certolizumab pegol was formulated at 100 mg/ml in histidine buffer (10 mM, pH 6.0) in the presence of either NaCl (150 mM) or 1,2-propandiol (200 mM) as tonicity modifiers.
A general note: Size exclusion chromatography separates by hydrodynamic size, large species first.

The mark [3] stands for this setting: histidine 10 mM pH 6.0, 1,2-propanediol 200 mM, additive 3 mg/ml.
Setting [4] is: histidine 10 mM pH 6.0, 1,2-propanediol 200 mM, additive 35.9 mg/ml.
The mark [5] stands for this setting: histidine 10 mM pH 6.0, NaCl 150 mM, additive 3 mg/ml.
[6] abbreviates: histidine 10 mM pH 6.0, NaCl 150 mM, additive 35.9 mg/ml.

For “2K mPEG valerate PEI800 [Compound (4), reference compound]”, the “effect on the rate of formation of HMWS” value in data set [1] was “reduced the rate of formation of HMWS in a dose dependent manner”. In addition, the results for the “% HMWS 16 weeks” value in data set [1] (additive 0.2 mg/ml), in data set [1] (additive 1 mg/ml) and in data set [1] (additive 5 mg/ml) were 2.57%, 1.06% and 0.93%, respectively. Besides, the “% HWMS 0 weeks” value in data set [1] (additive 0.2 mg/ml) stood at 0.69%; in data set [1] (additive 1 mg/ml), 0.79%; in data set [1] (additive 5 mg/ml) it was 0.69%.

On to “5K mPEG Propyl Triethylenetetramine Ethanol [Compound (2)]”, for which, in data set [1], the “effect on the rate of aggregation” value is “reduction in the rate of aggregation”. For the same molecule, the “% HMWS 0 weeks” value in data set [1] (additive 0.2 mg/ml) was found to be 0.25%; in data set [1] (additive 1 mg/ml) it was 0.40%; in data set [1] (additive 5 mg/ml), 0.35%; in data set [2] (setting [3]), 0.64%; in data set [2] (setting [4]), 0.81%; in data set [2] (setting [5]), 0.66%. In addition, in data set [2] (setting [6]), the “% HMWS 0 weeks” value is 0.79%. Moreover, the “% HMWS 12 weeks” value in data set [1] (additive 0.2 mg/ml) was 1.31%; in data set [1] (additive 1 mg/ml) it was 1.17%; in data set [1] (additive 5 mg/ml) it was 0.97%. Also, the results for the “% HMWS 26 weeks” value in data set [1] (additive 0.2 mg/ml), in data set [1] (additive 1 mg/ml) and in data set [1] (additive 5 mg/ml) were 4.79%, 4.44% and 3.60%, respectively. Also, the “% HMWS 8 weeks” value in data set [2] (setting [3]) was 2.02%; in data set [2] (setting [4]), 2.47%; in data set [2] (setting [5]), 3.32%; in data set [2] (setting [6]), 2.39%.

In the case of `NCCNCCN` [Diethylenetriamine], in data set [1], the “rate of aggregation compared with Original formulation” value is listed as “lower”; the “effect on the rate of formation of HMWS” value was “considerably reduce the rate of formation of HMWS in a dose dependent manner”; the “effect on the rate of aggregation” value is on record as “considerable, dose-dependent reduction in the aggregation rate”. In addition, in data set [1] (additive 0.2 mg/ml), the “% HMWS 16 weeks” value is listed as 0.94% and the “% HWMS 0 weeks” value turned out to be 0.81%. Further, in data set [1] (additive 1 mg/ml), the “% HMWS 16 weeks” value turned out to be 0.70%, the “% HWMS 0 weeks” value is 0.70%, the “% HMWS 0 weeks” value is recorded as 0.38% and the “% HMWS 12 weeks” value is recorded as 0.24%. Further, in data set [1] (additive 5 mg/ml), the “% HMWS 16 weeks” value is 0.67%, the “% HWMS 0 weeks” value was 0.79%, the “% HMWS 0 weeks” value stood at 0.37% and the “% HMWS 12 weeks” value came to 0.29%. Further, in data set [1] (additive 5 mg/ml), the “% HMWS 26 weeks” value was determined as 1.83%. Besides, in data set [1] (additive 0.02 mg/ml), the “% HMWS 0 weeks” value came to 0.37%, the “% HMWS 12 weeks” value worked out at 0.91% and the “% HMWS 26 weeks” value amounted to 4.09%. In addition, in data set [1] (additive 0.1 mg/ml), the “% HMWS 0 weeks” value is given as 0.38%, the “% HMWS 12 weeks” value turned out to be 0.35% and the “% HMWS 26 weeks” value is given as 0.89%.

In the case of `NCCN` [Ethylenediamine, reference compound], the “effect on the rate of formation of HMWS” value in data set [1] was “less effective in reducing the formation of HMWS”. Besides, the “% HMWS 16 weeks” value in data set [1] (additive 0.2 mg/ml) is on record as 2.44%; in data set [1] (additive 1 mg/ml), 2.27%; in data set [1] (additive 5 mg/ml), 2.08%. Also, the “% HWMS 0 weeks” value is on record as 0.49% in data set [1] (additive 0.2 mg/ml), 0.72% in data set [1] (additive 1 mg/ml) and 0.78% in data set [1] (additive 5 mg/ml).

With `NCCNCCNCCN` [Triethylenetetramine], in data set [1], the “rate of aggregation compared with Original formulation” value is given as “lower”. The “effect on the rate of formation of HMWS” value in data set [1] is “considerably reduce the rate of formation of HMWS in a dose dependent manner”. Further, the “effect on the rate of aggregation” value in data set [1] is given as “considerable, dose-dependent reduction in the aggregation rate”. The “% HMWS 16 weeks” value in data set [1] (additive 0.2 mg/ml) is reported as 0.81%; in data set [1] (additive 1 mg/ml), 0.56%; in data set [1] (additive 5 mg/ml) it was 0.51%. The “% HWMS 0 weeks” value in data set [1] (additive 0.2 mg/ml) is listed as 0.74%; in data set [1] (additive 1 mg/ml), 0.84%; in data set [1] (additive 5 mg/ml) it was 0.74%. In addition, the “% HMWS 0 weeks” value in data set [1] (additive 0.03 mg/ml) came out at 0.36%; in data set [1] (additive 1 mg/ml), 0.36%; in data set [1] (additive 5 mg/ml), 0.26%; in data set [1] (additive […]) it was 0.35%; in data set [2] (histidine 10 mM pH 6.0, 1,2-propanediol 200 mM, additive 1 mg/ml), 0.55%; in data set [2] (setting [3]), 0.49%. Moreover, the “% HMWS 0 weeks” value in data set [2] (histidine 10 mM pH 6.0, NaCl 150 mM, additive 1 mg/ml) came out at 0.63%; in data set [2] (setting [5]), 0.49%. Besides, the “% HMWS 12 weeks” value in data set [1] (additive 0.03 mg/ml) amounted to 0.29%; in data set [1] (additive 1 mg/ml), 0.27%; in data set [1] (additive 5 mg/ml), 0.17%; in data set [1] (additive […]), 0.32%. In addition, the “% HMWS 26 weeks” value in data set [1] (additive 0.03 mg/ml) was determined as 4.18%; in data set [1] (additive 1 mg/ml), 0.45%; in data set [1] (additive 5 mg/ml), 0.64%; in data set [1] (additive […]), 3.26%. In data set [2] (setting [3]), the “% HMWS 8 weeks” value turned out to be 0.85%.
